Reference: US20160199338A1, “COMPOSITIONS CONTAINING MONOACETYLDIACYLGLYCEROL COMPOUND AS AN ACTIVE INGREDIENT FOR PREVENTING OR TREATING RHEUMATOID ARTHRITIS” (ENZYCHEM LIFESCIENCES CORPORATION, priority 2013, published 2016)

Experiments:
[1] = tested on: arthritis induced by bovine type II collagen in male DBA/1J mouse; assay: Collagen-induced arthritis animal model; format: in vivo; settings: for histopathological arthritis score of knee joint: knee joint of both hind legs, vs negative control (FIG. 6); for histopathological arthritis score of knee joint / concentration of IL-6 in serum: EC-18 125, 500, 2,000 mg/kg oral, Remicade 20 mg/kg intraperitoneal, methotrexate 2.5 mg/kg oral; for concentration of IL-6 in serum: serum collected at day of tissue excision, once a day for five weeks, vs negative control (FIG. 4)
Procedure: For arthritis animal model experiment, arthritis was induced in male DBA/1J mouse by administering bovine type II collagen to the mouse. Efficacy of EC-18 for treating (or improving) arthritis was evaluated by repeatedly administering EC-18 to the mouse orally. For comparison, Remicade (positive control 1) was administered intraperitoneally and methotrexate (positive control 2) was administered orally. The experiment included seven groups: normal group (G1), negative control (G2), 125 mg/kg, 500 mg/kg and 2,000 mg/kg of EC-18 (EC-18 treatment groups, G3, G4, G5), 20 mg/kg of Remicade (Positive control 1, G6) and 2.5 mg/kg of Methotrexate (Positive control 2, G7). Each group consists of 10 mice. Olive oil was administered to normal group (G1) and negative control group (G2) as an excipient. In all groups, administration was made once a day for five weeks (a total of 35 administrations). Remicade (G6) was administered intraperitoneally, whereas EC-18, methotrexate and olive oil were administered orally in force. For all groups except normal Group (G1), arthritis was induced by immunizing animals twice with bovine type II collagen and complete Freund's adjuvant or incomplete Freund's adjuvant emulsion. During the observation period, common arthritis symptoms were observed once a day, weigh measured once a week, arthritic score evaluation made with the naked eye twice a week, foot thickness measured twice a week.

[2] = GLP toxicity test; cited from earlier work

Compound	histopathological arthritis score of knee joint [1]	concentration of IL-6 in serum [1]	toxicity [2]	crushing of cartilage and increase of Pannus (stained arthritic tissue) ([1]; EC-18 500 mg/kg (G4), Remicade 20 mg/kg (G6), vs negative control (FIGS. 7 and 8))
CN(Cc1cnc2nc(N)nc(N)c2n1)c1ccc(C(=O)N[C@@H](CCC(=O)O)C(=O)O)cc1 [Methothrexate, methotrexate]	reduced	reduced		
CCCCC/C=C\C/C=C\CCCCCCCC(=O)OC(COC(C)=O)COC(=O)CCCCCCCCCCCCCCC (stereo not drawn) [EC-18, 1-palmitoyl-2-linoleoyl-3-acetylglycerol]			no toxicity	
Remicade: positive control 1, administered intraperitoneally at 20 mg/kg	reduced	reduced		reduced
